From patent US12577238B2, “Compositions and methods for modulating inflammatory and degenerative disorder” (University of Southern California, priority 2018, dated 2026)
“Also recorded” adds a separate entry of the source.

Assays:
[1] = Survival of NZM.2328 female mice (lupus nephritis-like syndrome); assay type: in vivo; details: intraperitoneally twice weekly, 10 mg/kg
gp130 [2] = molecular target: T1, gp130 (Homo sapiens, UniProt P40189); experiment: OSM-mediated activation of gp130 in adult human articular chondrocytes; assay type: cell-based; details: three independent donors
T1 construct: endogenous in cells; host or cells: adult human articular chondrocytes (three donors)
T1 sequence (P40189 23-918): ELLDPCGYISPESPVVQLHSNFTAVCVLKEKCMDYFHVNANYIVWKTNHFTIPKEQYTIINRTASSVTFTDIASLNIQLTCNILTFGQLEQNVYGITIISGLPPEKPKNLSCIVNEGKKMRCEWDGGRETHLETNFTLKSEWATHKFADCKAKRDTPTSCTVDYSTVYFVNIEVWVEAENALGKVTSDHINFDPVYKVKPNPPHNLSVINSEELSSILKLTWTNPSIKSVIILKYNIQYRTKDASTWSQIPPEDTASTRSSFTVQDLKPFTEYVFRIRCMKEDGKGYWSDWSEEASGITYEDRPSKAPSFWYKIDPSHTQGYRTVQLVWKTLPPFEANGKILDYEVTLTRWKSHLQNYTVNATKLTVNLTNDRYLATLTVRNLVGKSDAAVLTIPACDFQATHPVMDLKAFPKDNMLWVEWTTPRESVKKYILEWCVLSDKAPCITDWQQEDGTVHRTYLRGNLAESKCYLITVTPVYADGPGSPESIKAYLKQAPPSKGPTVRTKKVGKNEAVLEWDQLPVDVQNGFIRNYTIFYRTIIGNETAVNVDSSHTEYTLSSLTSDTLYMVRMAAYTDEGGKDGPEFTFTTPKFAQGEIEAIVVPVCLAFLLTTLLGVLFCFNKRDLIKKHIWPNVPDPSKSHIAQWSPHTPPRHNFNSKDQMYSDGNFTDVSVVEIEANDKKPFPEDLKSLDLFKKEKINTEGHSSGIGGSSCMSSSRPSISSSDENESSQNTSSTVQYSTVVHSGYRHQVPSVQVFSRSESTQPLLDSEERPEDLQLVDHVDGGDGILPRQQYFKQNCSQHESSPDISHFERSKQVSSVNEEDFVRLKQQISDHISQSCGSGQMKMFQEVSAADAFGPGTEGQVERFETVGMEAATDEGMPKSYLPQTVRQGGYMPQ
From the text: 423F is the positive control drug. Adult human articular chondrocytes from three independent donors were used to generate the results.
Adult human articular chondrocytes from three independent donors were used to generate the results.
Adult human articular chondrocytes from three independent donors were used.

gp130 [3] = molecular target: T2, gp130 (Rattus norvegicus, UniProt P40190); experiment: CFA-induced systemic inflammatory response in rats, intraarticular drug; assay type: in vivo
T2 construct: from tissue; host or cells: rat knee joint in vivo (Sprague-Dawley wild-type in the CFA model)
T2 sequence (P40190 23-918): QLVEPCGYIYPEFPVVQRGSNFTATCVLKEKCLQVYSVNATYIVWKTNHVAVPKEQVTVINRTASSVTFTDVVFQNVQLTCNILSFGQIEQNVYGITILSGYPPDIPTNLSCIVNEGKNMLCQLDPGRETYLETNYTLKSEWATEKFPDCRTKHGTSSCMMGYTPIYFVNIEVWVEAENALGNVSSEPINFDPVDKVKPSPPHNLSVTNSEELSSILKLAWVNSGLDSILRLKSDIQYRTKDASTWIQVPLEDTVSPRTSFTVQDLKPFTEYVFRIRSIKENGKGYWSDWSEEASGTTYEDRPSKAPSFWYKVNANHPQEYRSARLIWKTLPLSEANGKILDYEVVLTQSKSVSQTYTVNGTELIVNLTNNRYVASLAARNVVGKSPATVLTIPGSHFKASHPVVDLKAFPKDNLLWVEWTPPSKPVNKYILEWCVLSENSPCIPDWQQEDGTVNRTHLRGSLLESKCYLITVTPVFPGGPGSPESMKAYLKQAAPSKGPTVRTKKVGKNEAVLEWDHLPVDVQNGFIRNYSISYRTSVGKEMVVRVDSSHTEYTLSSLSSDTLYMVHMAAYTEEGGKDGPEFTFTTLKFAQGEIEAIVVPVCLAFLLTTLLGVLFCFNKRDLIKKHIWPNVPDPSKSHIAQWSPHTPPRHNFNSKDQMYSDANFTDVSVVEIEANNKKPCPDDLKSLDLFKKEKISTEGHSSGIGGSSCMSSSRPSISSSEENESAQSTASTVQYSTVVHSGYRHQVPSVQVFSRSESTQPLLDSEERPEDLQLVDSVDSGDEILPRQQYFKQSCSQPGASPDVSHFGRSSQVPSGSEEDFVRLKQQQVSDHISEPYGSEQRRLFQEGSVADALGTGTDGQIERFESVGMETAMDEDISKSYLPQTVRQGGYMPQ
Description: Rat (Sprague-Dawley wild-type) were injected with Complete Freund's Adjuvant (CFA) to induce systemic inflammatory response. Drug (805) was injected intraarticularly; multiple doses (A and B, N=3).

[4] = tested on: adult pig articular chondrocytes; experiment: Proteins mediating pro-inflammatory signals with or without OSM; assay type: cell-based
From the text: (§1) Firstly, RCGD 423 was a hit from a library; this made the depth of the discovery surrounding the technology less comprehensive. Additionally, the physical properties of RCGD 423 (solubility, potency, functional groups) could be improved. Significant gains in these areas could potentially result in a first-in-class injectable for the treatment of post-traumatic OA. Moreover, the potential risks associated with promoting MYC stabilization and proliferation in gp130^+ cells as well as large increases in active STAT3 protein was of concern. […] These compounds were then screened in adult pig articular chondrocytes and cartilage explants, seeking compounds that could inhibit the catabolic effects of OSM but not drive increases in MYC and pSTAT3 protein levels. […] Together, these preliminary data identify CX-011 (B8) as a highly anti-inflammatory, anti-catabolic alternative to RCGD 423, with increased “drug-like” properties and reduced potential molecular liabilities.

[5] = Medial meniscal tear surgery, intra-articular injection; assay type: in vivo; details: following medial meniscal tear surgery
[6] = Oral single dose, synovial inflammation in rat joints; assay type: in vivo; details: oral administration of a single dose
OSMR and gp130 = molecular target: T3, OSMR and gp130 (Homo sapiens, UniProt P40189); experiment: Receptor competition, gp130-Flag pull-down, OSMR; assay type: cell-based; details: in the presence of OSM; IP-FLAG, WB-OSMR
T3 construct: FLAG; expressed in transfected cells; host or cells: adult human chondrocytes
T3 sequence (P40189 23-918): T1 sequence (P40189 23-918)
Description: Adult human chondrocytes transfected with gp130-Flag were incubated with various concentrations of RCGD 423 in the presence of IL-6 or OSM; levels of immoprecipitated IL-6R or OSMR were used to calculate the dissociation constant (Kd).
Adult human chondrocytes; IP-FLAG AB (transfected with gp130 FLAG plasmid), WB-OSMR.
This property would be of great interest due to the pro-inflammatory and pro-catabolic effects of these cytokines in the joint space. […] To assess whether RCGD 423 could directly compete for gp130 occupancy, human adult articular chondrocytes were transfected with tagged gp130 and then pulled down associated proteins±RCGD 423 and/or IL-6.

[7] = tested on: pig articular cartilage explants; experiment: Matrix degradation assay, OSM-driven, pig articular cartilage explants; assay type: cell-based
Description: FIG. 22A-C show matrix degradation assays.
72 hour exposure to the drug and OSM. […] Effect is concentration dependent and increases with increase in drug concentration.
as §1

adult synovial cells = experiment: OSM-mediated cytokine secretion by adult synovial cells; assay type: cell-based; details: 10 μM
Description: Adult synovial cells from three independent donors were used. Molecule 805 was used at 10 μM.

Cc1ccc(-c2csc(NC(=O)c3ccccn3)n2)cc1 [B805]
survival [1]: survive longer
OSM-mediated activation of downstream effector JAK2 (gp130 [2]): strongly inhibits
OSM-mediated activation of gp130 (gp130 [2]): inhibit OSM-mediated activation of gp130; also recorded: strongly inhibits OSM-mediated activation of gp130
activation of gp130 in sick animals (gp130 [3]): prolonged effect preventing activation gp130 in sick animals
inflammatory response in vivo (gp130 [3]; multiple doses, N=3): inhibits inflammatory response in vivo in a dose-dependent manner
increases in proteins mediating pro-inflammatory signals ([4]; in the presence of OSM): strongly inhibits increases in these proteins in the presence of OSM
endogenous levels of proteins mediating pro-inflammatory signals ([4]; without OSM): little effect
cartilage degeneration [5]: reduces cartilage degeneration
synovial inflammation [6]: reduced synovial inflammation in rat joints
competition with OSMR for gp130 occupancy / OSMR-gp130 interaction (OSMR and gp130): disrupts the interaction between OSMR and gp130 in a concentration-dependent manner
breakdown of collagen and aggrecan (aggrecan-neo, collagen-neo epitopes) ([7]; driven by OSM): strongly prevent the breakdown of collagen and aggrecan; also recorded: prevents the breakdown of collagen and aggrecan
increase in catalytic enzymes / induction of proteolytic gene expression ([7]; driven by OSM): prevents
breakdown of collagen and aggrecan (aggrecan-neo, collagen-neo epitopes) ([7]; fresh pig cartilage explants, 72 hour exposure to drug and OSM): strongly prevents the breakdown of collagen and aggrecan
OSM-mediated secretion of IL-6 (adult synovial cells): strongly inhibits
OSM-mediated secretion of TNF-α (adult synovial cells): strongly inhibits
